Results as given in patent US20180185408A1, “ANTIFUNGAL NYLON-3 POLYMERS AND COMBINATION THERAPY USING THEM TO TREAT FUNGAL INFECTIONS” (priority 2016, published 2018).
Converted amounts (≈) assume the structure as drawn. “And” between values parts separate entries of the source, which are not always exact repeats. Identical values can stand only once.

How the values were obtained:
[1] = tested on: human red blood cells (hRBCs); experiment: Hemolysis assay; details: 1 hour
Cryptococcus neoformans = experiment: Checkerboard microdilution synergy (FIC); details: for FIC / MIC alone / MIC combo: AMB and MM:TM
C. auris = experiment: MIC100 against yeast (CLSI M27-A3); format: cell-based, Candida auris; details: Candidozyma auris
C. krusei = experiment: MIC100 against yeast (CLSI M27-A3); format: cell-based, Candida krusei
Cryptococcus amylolentus = experiment: MIC100 against yeast (CLSI M27-A3); format: cell-based
Aspergillus species = experiment: MIC100 against 18 species of the Aspergillus genus; format: cell-based, Aspergillus spp.
Excerpt: (§1) We assessed the antifungal activity of MM-TM, DM-TM, and NM against 18 different species within the genus Aspergillus.

A. flavus = experiment: MIC100 against species of the Aspergillus genus; format: cell-based; details: Aspergillus flavus isolate NRRL3357
Excerpt: as §1

[2] = H99, […]10^5 cells/mL, 30°C, OD600 48 h, Avg.
[3] = H99, […]10^5 cells/mL, 30°C, OD600 48 h, trial 1
[4] = H99, […]10^5 cells/mL, 30°C, OD600 48 h, trial 2
[5] = MM:TM (40:60) with Amp B, isolate H99 (Amp B Sensitive), […]10^5 cells/mL, 30° C.
[6] = NM20 with Amp B, isolate H99, […] 10^5 cells/mL
[7] = Table 41, MM:TM with Amp B, isolate H99, […] 10^5 cells/mL

C[C@@H]1[C@H](O)[C@@H](C)/C=C/C=C/C=C/C=C/C=C/C=C/C=C/[C@H](O[C@@H]2O[C@H](C)[C@@H](O)[C@H](N)[C@@H]2O)C[C@@H]2O[C@](O)(C[C@@H](O)C[C@@H](O)[C@H](O)CC[C@@H](O)C[C@@H](O)CC(=O)O[C@H]1C)C[C@H](O)[C@H]2C(=O)O [AMB, amphotericin B]
concentration causing 10% hemolysis (HC10) [1]: 27 µM | concentration causing 50% lysis of hRBCs (HC50) [1]: 54 µM | decrease of the MIC of AMB in combination with MM:TM (Cryptococcus neoformans; H99): > 10 fold | MIC Combined (Cryptococcus neoformans; H99, AMB and MM:TM in combination, […]10^5 cells/mL, 30°C, OD600 48 h): 0.16 µM | FIC (Cryptococcus neoformans; H99, Avg.): 0.05 | MIC alone (Cryptococcus neoformans; [2]): 3.1 µg/mL | MIC combo (Cryptococcus neoformans; [2]): 0.15 µg/mL | MIC alone (Cryptococcus neoformans; [3]): 3.1 µg/mL | MIC combo (Cryptococcus neoformans; [3]): 0.2 µg/mL | MIC alone (Cryptococcus neoformans; [4]): 3.1 µg/mL | MIC combo (Cryptococcus neoformans; [4]): 0.1 µg/mL | MIC alone (Cryptococcus neoformans; H99, single agent, […]10^5 cells/mL, 30°C, OD600 48 h): 3.4 µM | FIC (Cryptococcus neoformans; H99, trial 1): 0.06 | FIC (Cryptococcus neoformans; H99, trial 2): 0.03 | MIC AMB alone (Cryptococcus neoformans; H99, AMB as single agent, OD600, 48 h, 30° C.): 3.4 µM | MIC AMB combination (Cryptococcus neoformans; H99, AMB in combination with MM:TM, OD600, 48 h, 30° C.): 0.1 µM and 0.16 µM and 0.2 µM | FICAMB (Cryptococcus neoformans; H99, AMB with MM:TM): 0.03 and 0.05 and 0.06 | FICAmp B (Cryptococcus neoformans; [5]): 0.09 | MIC Amp B alone (Cryptococcus neoformans; [5]): 1.6 µg/mL | MIC Amp B in combination (Cryptococcus neoformans; [5]): 0.15 µg/mL | MIC AMB alone (Cryptococcus neoformans; [6]): 3.1 µg/mL | MIC AMB in combination (Cryptococcus neoformans; [6]): 0.1 µg/mL | MIC Amp B alone (Cryptococcus neoformans; [7]): 1.6 µg/mL | MIC Amp B in combination (Cryptococcus neoformans; [7]): 0.15 µg/mL

OC(Cn1cncn1)(Cn1cncn1)c1ccc(F)cc1F [FLC, fluconazole]
MIC50 (C. auris; Candida auris B11220): 4 µg/mL (≈ 13.1 µM) | MIC50 (C. auris; Candida auris C54039, Resistance AmB): 16 µg/mL (≈ 52.2 µM) | polymer efficacy against budding yeasts, 50% (C. krusei; C. krusei QC, CLSI QC isolate for susceptibility testing): 32 | MIC50 (C. krusei; Pichia kudriavzevii, Candida krusei QC): 32 µg/mL (≈ 104 µM) | MIC50 (Cryptococcus amylolentus; CBS6039, Cryptococcus amolyentous CBS 6039): 16 µg/mL (≈ 52.2 µM) | MIC50 (Cryptococcus amylolentus; CBS6273, Cryptococcus amolyentous CBS 6273): 16 µg/mL (≈ 52.2 µM)

CCC(C)n1ncn(-c2ccc(N3CCN(c4ccc(OCC5COC(Cn6cncn6)(c6ccc(Cl)cc6Cl)O5)cc4)CC3)cc2)c1=O (centres unmarked) [Itraconazole, itraconazole]
MIC (Aspergillus species; Aspergillus aculeatus isolate CBS 172.66): < 1 µg/mL | MIC (Aspergillus species; Aspergillus brasiliensis isolate CBS 101740): 64 µg/mL (≈ 90.7 µM) | MIC (Aspergillus species; Aspergillus carbonarius isolate DT0115-B6): < 1 µg/mL | MIC (Aspergillus species; Aspergillus clavatus isolate CBS 513.65): 64 µg/mL (≈ 90.7 µM) | MIC (Aspergillus species; Aspergillus fumigatus isolate CEA10): < 1 µg/mL | MIC (Aspergillus species; Aspergillus glaucus isolate CBS 516.65): 2 µg/mL (≈ 2.83 µM) | MIC (Aspergillus species; Aspergillus nidulans isolate FGSCA4): < 1 µg/mL | MIC (Aspergillus species; Aspergillus niger isolate CBS 113.46): < 1 µg/mL | MIC (Aspergillus species; Aspergillus oryzae isolate Rib40): 1 µg/mL (≈ 1.42 µM) | MIC (Aspergillus species; Aspergillus parasiticus isolate Su-1): < 1 µg/mL | MIC (Aspergillus species; Aspergillus sydowii isolate CBS 593.65): 2 µg/mL (≈ 2.83 µM) | MIC (Aspergillus species; Aspergillus terreus isolate NCCB IH2626): < 1 µg/mL | MIC (Aspergillus species; Aspergillus versicolor isolate CBS 795.97): 1 µg/mL (≈ 1.42 µM) | MIC (Aspergillus species; Aspergillus wentii isolate DT0136-E9): < 1 µg/mL | MIC (Aspergillus species; Aspergillus zonatus isolate CBS 506.65): < 1 µg/mL | MIC (Aspergillus species; Neosartorya fischeri isolate CBS 544.65): > 8 µg/mL | MIC (A. flavus): < 1 µg/mL
